This note sets out measurements from patent US10106504B2, “Pyridin-3-yl acetic acid derivatives as inhibitors of human immunodeficiency virus replication” (priority 2015, dated 2018).

Read-outs that look alike come from different tables or passages of the source.

The test system of this assay is NL-RLuc virus. As to the kind of experiment: Inhibition of HIV replication (NL-RLuc virus, luciferase readout in MT-2 cells). Type of assay: cell-based. To be noted: Human immunodeficiency virus 1, MT2, 120 h. The text has this:
Inhibition of HIV Replication:
A recombinant NL-RLuc proviral clone was constructed in which a section of the nef gene from NL4-3 was replaced with the Renilla Luciferase gene. This virus is fully infectious and can undergo multiple cycles of replication in cell culture. In addition, the luciferous reporter provides a simple and easy method for quantitating the extent of virus growth and consequently, the antiviral activity of test compounds. The plasmid pNLRLuc contains the proviral NL-Rluc DNA cloned into pUC18 at the PvuII site. The NL-RLuc virus was prepared by transfection of 293T cells with the plasmid pNLRLuc. Transfections were performed using the LipofectAMINE PLUS kit from Invitrogen (Carlsbad, Calif.) according to the manufacturer and the virus generated was titered in MT-2 cells. For susceptibility analyses, the titrated virus was used to infect MT-2 cells in the presence of compound, and after 5 days of incubation, cells were processed and quantitated for virus growth by the amount of expressed luciferase. Assay media was RPMI 1640 supplemented with 10% heat inactivated fetal bovine serum (FBS), 100 units/ml penicillin G/100 units/ml streptomycin, 10 mM HEPES buffer pH 7.55 and 2 mM L-glutamine. The results from at least 2 experiments were used to calculate the EC50 values. Luciferase was quantitated using the Dual Luciferase kit from Promega (Madison, Wis.). Susceptibility of viruses to compounds was determined by incubation in the presence of serial dilutions of the compound. The 50% effective concentration (EC50) was calculated by using the exponential form of the median effect equation where (Fa)=1/[1+(ED50/drug conc.)^m] (Johnson V A, Byington R T. Infectivity Assay. In Techniques in HIV Research. ed. Aldovini A, Walker BD. 71-76. New York: Stockton Press. 1990). Activity equal to A refers to a compound having an EC50<100 nM, while B and C denote compounds having an EC50 between 100 nM and 1 uM (B) or >1 uM (C).

Consider `Cc1nc(C)c([C@H](OC(C)(C)C)C(=O)O)c(-c2cc(F)c3c(c2C)CCCO3)c1-c1cc(F)c2c(c1C)CCCO2` [Example 1, (2S)-2-(4,5-Bis(8-fluoro-5-methylchroman-6-yl)-2,6-dimethylpyridin-3-yl)-2-(tert-butoxy)acetic Acid], for which the EC50 (read-out: Activity) is greater than 1 µM and the EC50 (read-out: EC50 μM) was determined as 1.74 µM. For the compound `COc1ccc(COc2ccc(-c3c(C)nc(C)c([C@H](OC(C)(C)C)C(=O)O)c3-c3ccc(Cl)cc3)cc2)cc1` [Example 2, (S)-2-(tert-Butoxy)-2-(4-(4-chlorophenyl)-5-(4-((4-methoxybenzyl)oxy)phenyl)-2,6-dimethylpyridin-3-yl)acetic Acid], the EC50 reads like this: (read-out: Activity) less than 0.1 µM; (read-out: EC50 μM) 0.073 µM.

`COc1ccc(COc2ccc(-c3c(C)nc(C)c([C@H](OC(C)(C)C)C(=O)O)c3-c3ccc(C)cc3)cc2)cc1` [Example 3, (S)-2-(tert-Butoxy)-2-(5-(4-((4-methoxybenzyl)oxy)phenyl)-2,6-dimethyl-4-(p-tolyl)pyridin-3-yl)acetic Acid]: the EC50 is, setting by setting: (read-out: Activity) 0.1 to 1 µM; (read-out: EC50 μM) 0.196 µM. Consider `COc1ccc(COc2ccc(-c3c(C)nc(C)c([C@H](OC(C)(C)C)C(=O)O)c3-c3ccc(OCc4ccc(OC)cc4)cc3)cc2)cc1` [Example 4, (S)-2-(4,5-Bis(4-((4-methoxybenzyl)oxy)phenyl)-2,6-dimethylpyridin-3-yl)-2-(tert-butoxy)acetic Acid], for which the EC50 (read-out: Activity) was 0.1 to 1 µM. As to `Cc1ccc(-c2c(-c3ccc(OCc4ccc(F)cc4)cc3)c(C)nc(C)c2[C@H](OC(C)(C)C)C(=O)O)cc1` [Example 5, (S)-2-(tert-Butoxy)-2-(5-(4-((4-fluorobenzyl)oxy)phenyl)-2,6-dimethyl-4-(p-tolyl)pyridin-3-yl)acetic Acid], the EC50 (read-out: Activity) is 0.1 to 1 µM. For `Cc1nc(C)c([C@H](OC(C)(C)C)C(=O)O)c(-c2cc(F)c3c(c2C)CCCO3)c1-c1ccc(OCCc2ccc(F)cc2)cc1` [Example 6, (2S)-2-(tert-Butoxy)-2-(4-(8-fluoro-5-methylchroman-6-yl)-5-(4-(4-fluorophenethoxy)phenyl)-2,6-dimethylpyridin-3-yl)acetic Acid], the EC50 (read-out: Activity) is less than 0.1 µM. `CCOc1ccc(-c2c(C)nc(C)c([C@H](OC(C)(C)C)C(=O)O)c2-c2cc(F)c3c(c2C)CCCO3)cc1` [Example 7, (2S)-2-(tert-Butoxy)-2-(5-(4-ethoxyphenyl)-4-(8-fluoro-5-methylchroman-6-yl)-2,6-dimethylpyridin-3-yl)acetic Acid]: the EC50 is 0.1 to 1 µM (read-out: Activity) and 0.545 µM (read-out: EC50 μM). With `Cc1nc(C)c([C@H](OC(C)(C)C)C(=O)O)c(-c2ccc(OCCc3ccc(F)cc3)cc2)c1-c1ccc(OCCc2ccc(F)cc2)cc1` [Example 8, (S)-2-(4,5-Bis(4-(4-fluorophenethoxy)phenyl)-2,6-dimethylpyridin-3-yl)-2-(tert-butoxy)acetic Acid], the EC50 (read-out: Activity) is 0.1 to 1 µM. In the case of `Cc1nc(C)c([C@H](OC(C)(C)C)C(=O)O)c(-c2ccc3c(c2)CCCO3)c1-c1ccc(OCCc2ccc(F)cc2)cc1` [Example 9, (S)-2-(tert-Butoxy)-2-(4-(chroman-6-yl)-5-(4-(4-fluorophenethoxy)phenyl)-2,6-dimethylpyridin-3-yl)acetic Acid], under “read-out: Activity”, the EC50 was less than 0.1 µM. With `Cc1nc(CN(C)C)c(-c2ccc(OCCc3ccc(F)cc3)cc2)c(-c2ccc3c(c2)CCCO3)c1[C@H](OC(C)(C)C)C(=O)O` [Example 10, (S)-2-(tert-Butoxy)-2-(4-(chroman-6-yl)-6-((dimethylamino)methyl)-5-(4-(4-fluorophenethoxy)phenyl)-2-methylpyridin-3-yl)acetic Acid], the EC50 (read-out: Activity) is less than 0.1 µM. Regarding `Cc1nc(CNCC2CCOCC2)c(-c2ccc(OCCc3ccc(F)cc3)cc2)c(-c2ccc3c(c2)CCCO3)c1[C@H](OC(C)(C)C)C(=O)O` [Example 11, (S)-2-(tert-Butoxy)-2-(4-(chroman-6-yl)-5-(4-(4-fluorophenethoxy)phenyl)-2-methyl-6-((((tetrahydro-2H-pyran-4-yl)methyl)amino)methyl)pyridin-3-yl)acetic Acid], under “read-out: Activity”, the EC50 was less than 0.1 µM. Regarding `COCCNCc1nc(C)c([C@H](OC(C)(C)C)C(=O)O)c(-c2ccc3c(c2)CCCO3)c1-c1ccc(OCCc2ccc(F)cc2)cc1` [Example 12, (S)-2-(tert-Butoxy)-2-(4-(chroman-6-yl)-5-(4-(4-fluorophenethoxy)phenyl)-6-(((2-methoxyethyl)amino)methyl)-2-methylpyridin-3-yl)acetic Acid], the EC50 was less than 0.1 µM (read-out: Activity) and 0.007 µM (read-out: EC50 μM). With `Cc1nc(CN(C)CC2CCOCC2)c(-c2ccc(OCCc3ccc(F)cc3)cc2)c(-c2ccc3c(c2)CCCO3)c1[C@H](OC(C)(C)C)C(=O)O` [Example 13, (S)-2-(tert-Butoxy)-2-(4-(chroman-6-yl)-5-(4-(4-fluorophenethoxy)phenyl)-2-methyl-6-((methyl((tetrahydro-2H-pyran-4-yl)methyl)amino)methyl)pyridin-3-yl)acetic Acid], the EC50 (read-out: Activity) was less than 0.1 µM. For `Cc1nc(CO)c(-c2ccc(OCCc3ccc(F)cc3)cc2)c(-c2ccc3c(c2)CCCO3)c1[C@H](OC(C)(C)C)C(=O)O` [Example 14, (S)-2-(tert-Butoxy)-2-(4-(chroman-6-yl)-5-(4-(4-fluorophenethoxy)phenyl)-6-(hydroxymethyl)-2-methylpyridin-3-yl)acetic Acid], the EC50 (read-out: Activity) was less than 0.1 µM. Turning to `Cc1nc(COC2CCOCC2)c(-c2ccc(OCCc3ccc(F)cc3)cc2)c(-c2ccc3c(c2)CCCO3)c1[C@H](OC(C)(C)C)C(=O)O` [Example 15, (S)-2-(tert-Butoxy)-2-(4-(chroman-6-yl)-5-(4-(4-fluorophenethoxy)phenyl)-2-methyl-6-(((tetrahydro-2H-pyran-4-yl)oxy)methyl)pyridin-3-yl)acetic Acid], the EC50 (read-out: Activity) was less than 0.1 µM. As for `Cc1nc(COCC2COC2)c(-c2ccc(OCCc3ccc(F)cc3)cc2)c(-c2ccc3c(c2)CCCO3)c1[C@H](OC(C)(C)C)C(=O)O` [Example 16, (S)-2-(tert-Butoxy)-2-(4-(chroman-6-yl)-5-(4-(4-fluorophenethoxy)phenyl)-2-methyl-6-((oxetan-3-ylmethoxy)methyl)pyridin-3-yl)acetic Acid], under “read-out: Activity”, the EC50 is less than 0.1 µM. Consider `CCOCCOCc1nc(C)c([C@H](OC(C)(C)C)C(=O)O)c(-c2ccc3c(c2)CCCO3)c1-c1ccc(OCCc2ccc(F)cc2)cc1` [Example 17, (S)-2-(tert-Butoxy)-2-(4-(chroman-6-yl)-6-((2-ethoxyethoxy)methyl)-5-(4-(4-fluorophenethoxy)phenyl)-2-methylpyridin-3-yl)acetic Acid], for which the EC50 (read-out: Activity) is less than 0.1 µM. `CCOCCOCCOCc1nc(C)c([C@H](OC(C)(C)C)C(=O)O)c(-c2ccc3c(c2)CCCO3)c1-c1ccc(OCCc2ccc(F)cc2)cc1` [Example 18, (S)-2-(tert-Butoxy)-2-(4-(chroman-6-yl)-6-((2-(2-ethoxyethoxy)ethoxy)methyl)-5-(4-(4-fluorophenethoxy)phenyl)-2-methylpyridin-3-yl)acetic Acid]: the EC50 (read-out: Activity) is less than 0.1 µM.

For `Cc1nc(C)c([C@H](OC(C)(C)C)C(=O)O)c(-c2ccc3c(c2)CCCO3)c1-c1ccc2c(c1)CCN(C(=O)OCc1ccccc1)C2` [Example 19, (S)-2-(5-(2-((Benzyloxy)carbonyl)-1,2,3,4-tetrahydroisoquinolin-6-yl)-4-(chroman-6-yl)-2,6-dimethylpyridin-3-yl)-2-(tert-butoxy)acetic Acid], the EC50 is less than 0.1 µM (read-out: Activity) and 0.069 µM (read-out: EC50 μM).
